Experimental findings from patent US20120122843A1, “Compounds and Their Use for Treatment of Amyloid Beta-Related Diseases” (ASTRAZENECA AB, priority 2010, published 2012) are described below.

Experiment [1] concerns Aβ42. In words: Aβ42 release from HEK cells stably expressing APPswe (MSD electrochemiluminescence). The experiment is classed as cell-based, Human. The note with it: 4-6 h incubation with test compound, Aβ42 secreted to cell medium. On the procedure: The level of activity of the compounds on Aβ formation was tested using the following method:
Compounds were diluted in 100% DMSO and stored at […] prior to use. Human Embryonic Kidney (HEK) cell line stably expressing APP with the Swedish mutation (APPswe) were cultured using Dulbecco's Modified Eagles medium (DMEM) supplied with […] glucose, Na-pyruvate and GlutaMAX with 10% FBS, 100 U/ml penicillin-streptomycin (PEST) respectively, 1× non-essential amino acids (NEAA), […] Hepes, 100 μg/ml Zeocine. Cells at about 80% confluence were washed with PBS, detached from culture flasks using 1× Trypsin/EDTA diluted in PBS, re-suspended in cell media and plated in 384-well poly-d-lysine coated cell culture plates at about 10000-15000 cells/well, in 25 μL cell media. Optionally, cryo-preserved cells (frozen and stored at −140° C. in 90% cell media and 10% DMSO) were thawed, washed and plated as above. Next the cells were incubated for 15-24 h at 37° C. and 5% CO2, after which cell medium was changed. Fresh medium containing test compound diluted ×200 from prepared compound plate was added to the cells before further incubation for 4-6 hours at 37° C. and 5% CO2. After incubation with test compound the amount of Aβ peptides, including Aβ42, Aβ40, Aβ39, Aβ38 and Aβ37, as well as total Aβ levels, secreted to cell medium was analyzed using the electrochemiluminescence assay technology from Meso Scale Discovery (MSD), in combination with specific antibodies raised against the different Aβ peptides. Aβ42, Aβ40 and Aβ38 antibodies were purchased from MSD and Aβ37 and Aβ39 were made in house. Total Aβ was measured using a combination of 6E10 and 4G8 anti Aβ antibodies from MSD. Potential cytotoxic effects of the compounds were usually assayed by measuring the ATP content (ViaLight) from cell lysate.

Experiment [2] concerns Notch. In words: Release and translocation of Notch intracellular domain into the nucleus, HEK/AENotch cells (NICD immunostaining, ImageXpress). To be noted: 3 μM Lactacystin, 4-6 h incubation, nucleus/cytosol NICD fluorescence ratio. The experiment is classed as cell-based, Human. Here is the method:
The level of activity of the compounds on release and translocation of Notch intracellular domain into the cell nucleus was tested using the following method:
Compounds were diluted in 100% DMSO and stored at […] prior to use. Human Embryonic Kidney cell line overexpressing Notchl-E-human-myc construct (referred to as HEK/AENotch) were cultured in T75 cm^2 or T225 cm^2 cell culture flasks using Dulbecco's Modified Eagles medium (DMEM) supplemented with […] glucose, Na-pyruvate and GlutaMAX with 10% FBS, 100 U/ml penicillin-streptomycin (PEST) respectively, 1× non-essential amino acids (NEAA), […] Hepes and 100 μg/ml Hygromycin. Cells at about 80% confluence were washed with PBS, detached from the flask bottom using 1× Trypsin/EDTA diluted in PBS, re-suspended in cell media and plated in 384-well plates at about 10000 cells/well, in 25 μL cell media. Optionally, cryo-preserved cells (frozen and stored at −140° C. in 90% cell media and 10% DMSO) were thawed, washed and plated as above. Next the cells were incubated for 15-24 h at 37° C. and 5% CO2, after which cell medium was replaced with fresh medium containing 3 μM Lactacystin and test compound diluted ×200 from prepared compound plate giving 0.5% final DMSO concentration, and the highest compound concentration typically 25 μM. Cells were then incubated 4-6 h with test compound before being fixed, washed and immunostained with NICD antibody (rabbit Notch 1 (C-20)). Image acquisition of cytosolic/membrane and nuclear fluorescence as well as subsequent analysis of the nucleus and cytosolic fluorescence ratio was carried out using ImageXpress. Potential cytotoxic effects of the compounds were usually assayed by analysis of nucleus area or cell number.

Setting [3] is: Homo sapiens, HEK293, HEK cells expressing APPswe.

pIC50: −log10 of the molar value. Where only a bound is given, the exact number is not on record here.

`COc1nc(Nc2ccc3c(n2)OC(CC(F)(F)F)CN(C)C3C)ccc1-c1cnn(C)c1` (single isomer, unassigned) [Example 34, N-(6-Methoxy-5-(1-methyl-1H-pyrazol-4-yl)pyridin-2-yl)-4,5-dimethyl-2-(2,2,2-trifluoroethyl)-2,3,4,5-tetrahydropyrido[3,2-f][1,4]oxazepin-8-amine]: the pIC50 in experiment [1] (HEK cells expressing APPswe) is 7.80; in experiment [2], less than 4.60.

Take `COc1nc(Nc2ccc3c(n2)OC(CC(F)(F)F)CN(C)C3C)ccc1-c1cnn(C)c1` (single isomer, unassigned) [Example 35, N-(6-Methoxy-5-(1-methyl-1H-pyrazol-4-yl)pyridin-2-yl)-4,5-dimethyl-2-(2,2,2-trifluoroethyl)-2,3,4,5-tetrahydropyrido[3,2-f][1,4]oxazepin-8-amine]: the negative-log IC50 (pIC50) in experiment [1] (HEK cells expressing APPswe) was 7.92; in experiment [2] it was less than 4.60.

As for `COc1nc(Nc2ccc3c(n2)OC(CC(F)(F)F)CN(C)C3C)ccc1-c1cnn(C)c1` (single isomer, unassigned) [Example 36, N-(6-Methoxy-5-(1-methyl-1H-pyrazol-4-yl)pyridin-2-yl)-4,5-dimethyl-2-(2,2,2-trifluoroethyl)-2,3,4,5-tetrahydropyrido[3,2-f][1,4]oxazepin-8-amine], the figures for the pIC50 in experiment [1] (HEK cells expressing APPswe) and in experiment [2] were 7.92 and less than 4.60, respectively.

Consider `COc1nc(Nc2ccc3c(n2)OC(C2CC(F)(F)C2)CN(C)C3)ccc1-c1cnn(C)c1` (single isomer, unassigned) [Example 38, 2-(3,3-Difluorocyclobutyl)-N-(6-methoxy-5-(1-methyl-1H-pyrazol-4-yl)pyridin-2-yl)-4-methyl-2,3,4,5-tetrahydropyrido[3,2-f][1,4]oxazepin-8-amine], for which the pIC50 in experiment [1] (HEK cells expressing APPswe) is 7.82; in experiment [2], less than 4.60.

In the case of `COc1nc(Nc2ccc3c(n2)O[C@H](c2ccc(F)cn2)CN(C)C3C)ccc1-c1cnn(C)c1` (single isomer, unassigned) [Example 50], the pIC50 is 7.22 in experiment [1] (HEK cells expressing APPswe) and 5.64 in experiment [2].

For the compound `COc1nc(Nc2ccc3c(n2)O[C@H](c2ccc(F)cn2)CN(C)C3C)ccc1-c1cnn(C)c1` (single isomer, unassigned) [Example 51], the pIC50 in experiment [1] (HEK cells expressing APPswe) was 7.72; in experiment [2], less than 4.60.

Turning to `COc1nc(Nc2ccc3c(n2)OC(CCC(F)(F)F)CN(C)C3)ccc1-c1cnn(C)c1` (single isomer, unassigned; (+)) [Example 57, (+)-N-[6-Methoxy-5-(1-methylpyrazol-4-yl)-2-pyridyl]-4-methyl-2-(3,3,3-trifluoropropyl)-3,5-dihydro-2H-pyrido[3,2-f][1,4]oxazepin-8-amine], the figures for the pIC50 in experiment [1] (HEK cells expressing APPswe) and in experiment [2] were 8.30 and less than 4.94, respectively.

For `COc1nc(Nc2ccc3c(n2)OC(c2nc(C)cs2)C(C)N(C)C3)ccc1-n1cnc(C)c1` (single isomer, unassigned; (+)) [Example 60, (+)-N-(6-Methoxy-5-(4-methyl-1H-imidazol-1-yl)pyridin-2-yl)-3,4-dimethyl-2-(4-methylthiazol-2-yl)-2,3,4,5-tetrahydropyrido[3,2-f][1,4]oxazepin-8-amine], the pIC50 in experiment [1] (HEK cells expressing APPswe) was 7.77; in experiment [2], less than 4.60.

For `COc1nc(Nc2ccc3c(n2)OC(c2ncc(C)s2)CN(C)C3)ccc1-n1cnc(C)c1` (single isomer, unassigned; (+)) [Example 66, (+)-N-(6-Methoxy-5-(4-methyl-1H-imidazol-1-yl)pyridin-2-yl)-4-methyl-2-(5-methylthiazol-2-yl)-2,3,4,5-tetrahydropyrido[3,2-f][1,4]oxazepin-8-amine], the pIC50 is 7.42 in experiment [1] (HEK cells expressing APPswe) and less than 4.60 in experiment [2].

Turning to `COc1nc(Nc2ccc3c(n2)OC(CC(F)(F)F)CN(C)C3)ccc1-c1cnn(C)c1` (single isomer, unassigned; (-)) [Example 5, (−)-N-(6-Methoxy-5-(1-methyl-1H-pyrazol-4-yl)pyridin-2-yl)-4-methyl-2-(2,2,2-trifluoroethyl)-2,3,4,5-tetrahydropyrido[3,2-f][1,4]oxazepin-8-amine], the results for the pIC50 in experiment [1] (HEK cells expressing APPswe) and in experiment [2] were 7.68 and less than 4.60, respectively.

As to `COc1nc(Nc2ccc3c(n2)OC(c2nc(C)cs2)CN(C)C3)ccc1-c1cnn(C)c1` (single isomer, unassigned; (-)) [Example 11, (−)-N-(6-Methoxy-5-(1-methyl-1H-pyrazol-4-yl)pyridin-2-yl)-4-methyl-2-(4-methylthiazol-2-yl)-2,3,4,5-tetrahydropyrido[3,2-f][1,4]oxazepin-8-amine], the pIC50 was 7.85 in experiment [1] (HEK cells expressing APPswe) and 5.84 in experiment [2] (Homo sapiens).

For `COc1nc(Nc2ccc3c(n2)O[C@H](c2ccc(F)cn2)CN(C)C3C)ccc1-n1cnc(C)c1` (single isomer, unassigned; (-)) [Example 52], the pIC50 in experiment [1] (setting [3]) is 8.00; in experiment [2] (Homo sapiens) it was 5.14.

As for `COc1nc(Nc2ccc3c(n2)O[C@H](c2ccc(F)cn2)CN(C)C3C)ccc1-n1cnc(C)c1` (single isomer, unassigned; (-)) [Example 53], the pIC50 in experiment [1] (HEK cells expressing APPswe) was 7.96; in experiment [2], less than 5.10.

For `COc1nc(Nc2ccc3c(n2)OC(CCC(F)(F)F)CN(C)C3)ccc1-c1cnn(C)c1` (single isomer, unassigned; (-)) [Example 58, (−)-N-[6-Methoxy-5-(1-methylpyrazol-4-yl)-2-pyridyl]-4-methyl-2-(3,3,3-trifluoropropyl)-3,5-dihydro-2H-pyrido[3,2-f][1,4]oxazepin-8-amine], the pIC50 in experiment [1] (HEK cells expressing APPswe) is 7.74; in experiment [2] it was less than 4.60.

Take `COc1nc(Nc2ccc3c(n2)OC(c2nc(C)cs2)C(C)N(C)C3)ccc1-n1cnc(C)c1` (single isomer, unassigned; (-)) [Example 59, (−)-N-(6-Methoxy-5-(4-methyl-1H-imidazol-1-yl)pyridin-2-yl)-3,4-dimethyl-2-(4-methylthiazol-2-yl)-2,3,4,5-tetrahydropyrido[3,2-f][1,4]oxazepin-8-amine]: the pIC50 in experiment [1] (HEK cells expressing APPswe) is 8.15; in experiment [2] (Homo sapiens) it was less than 4.60.

Turning to `COc1nc(Nc2ccc3c(n2)OC(CCC(F)(F)F)CN(C)C3)ccc1-n1cnc(C)c1` (single isomer, unassigned; (-)) [Example 62, (−)-[6-Methoxy-5-(4-methyl-imidazol-1-yl)-pyridin-2-yl]-[6-methyl-8-(3,3,3-trifluoro-propyl)-5,6,7,8-tetrahydro-9-oxa-1,6-diaza-benzocyclohepten-2-yl]-amine], the pIC50 in experiment [1] (HEK cells expressing APPswe) is 8.30; in experiment [2], less than 4.60.

Regarding `COc1nc(Nc2ccc3c(n2)OC(c2ncc(C)s2)CN(C)C3)ccc1-n1cnc(C)c1` (single isomer, unassigned; (-)) [Example 65, (−)-N-(6-Methoxy-5-(4-methyl-1H-imidazol-1-yl)pyridin-2-yl)-4-methyl-2-(5-methylthiazol-2-yl)-2,3,4,5-tetrahydropyrido[3,2-f][1,4]oxazepin-8-amine], the pIC50 in experiment [1] (HEK cells expressing APPswe) was 8.05; in experiment [2] (Homo sapiens), less than 4.60.

Consider `COc1nc(Nc2ccc3c(n2)OC(CC(CF)CF)CN(C)C3)ccc1-n1cnc(C)c1` (single isomer, unassigned; (-)) [Example 68, (−)-[8-(3-Fluoro-2-fluoromethyl-propyl)-6-methyl-5,6,7,8-tetrahydro-9-oxa-1,6-diaza-benzocyclohepten-2-yl]-[6-methoxy-5-(4-methyl-imidazol-1-yl)-pyridin-2-yl]-amine], for which the pIC50 in experiment [1] (HEK cells expressing APPswe) is 8.05; in experiment [2], less than 4.60.

Consider `Cc1cn(-c2ccc(Nc3cc(C)c4c(n3)OC(CC(F)(F)F)CN(C)C4)nc2)cn1` (centres unmarked) [Example 1, 4,6-Dimethyl-N-(5-(4-methyl-1H-imidazol-1-yl)pyridin-2-yl)-2-(2,2,2-trifluoroethyl)-2,3,4,5-tetrahydropyrido[3,2-f][1,4]oxazepin-8-amine], for which the pIC50 is 6.65 in experiment [1] (setting [3]) and less than 4.30 in experiment [2] (Homo sapiens).

As usually defined, the pIC50 is the IC50 on a negative log10 scale, so that one unit is a factor of ten.
